Test results: patent US10314295B2, “Mouse model of hyperuricemia” (PHOENIXBIO CO., LTD., priority 2014, dated 2019)

Tested on: hyperuricemia model mice
Experiment: Allopurinol-induced change in plasma uric acid level in hyperuricemia model mice
Format: in vivo, mouse
Method: The hyperuricemia model mice obtained as described above were subjected to administration of allopurinol, which is an existing drug for lowering blood uric acid levels. The number of the mice subjected to administration of allopurinol was six.
Allopurinol (Wako Pure Chemical Industries, Ltd.) was suspended in a 0.5 w/v% methylcellulose (MC) 400 solution (sterilized, Wako Pure Chemical Industries, Ltd.) for preparation of a 0.5 mg/mL allopurinol suspension. The 0.5 mg/mL allopurinol suspension was orally administered once in a volume of 10 mL/kg body weight (5 mg/kg body weight).
Blood was collected from each mouse before and 2, 4 and 24 hours after allopurinol or a 0.5 w/v % methylcellulose 400 solution was administered. The plasma uric acid concentration was measured in the same manner as above.

SMILES: Oc1ncnc2[nH]ncc12 [allopurinol]
- mean of the plasma uric acid concentrations (2 hours after single oral 5 mg/kg body weight, 6 mice, mean before administration 3.8 mg/dL, vehicle control 3.0 before, 4.8 at 2 hours): 1.9 mg/dL
- change of plasma uric acid concentration by administration (single oral 5 mg/kg body weight, 2 hours after vs before administration): significantly reduced
